Consider 2 molecules from ChEMBL document CHEMBL4184139, “Adamantyl- and other polycyclic cage-based conjugates of desferrioxamine B (DFOB) for treating iron-mediated toxicity in cell models of Parkinson's disease” (Bioorg Med Chem Lett, 2017).

Active and inactive are the calls of the source. The rule behind the calls is not given here.

The term logP denotes a log measure of how a compound divides between an organic and an aqueous phase. The term EC50 denotes the concentration at which the effect is half-maximal.

One data set has as its system Astrocyte. Kind of data set: Cytoprotection against H2O2-induced cell death in BSO pretreated C57BL6/J mouse brain primary astrocytes assessed as increase in cell viability at 10 uM pretreated for 2 hrs followed by H2O2 addition measured after 24 hrs by MTT assay. It is filed as functional, cell-based.
Details: not given
(In general: Tetrazolium dyes change colour on reduction, which living cells bring about.)
With `CC(=O)N(O)CCCCCNC(=O)CCC(=O)N(O)CCCCCNC(=O)CCC(=O)N(O)CCCCCNC(=O)C1CC2CCCC(C2)C1` (stereo not given), the result was Active.

Consider `CC(=O)N(O)CCCCCNC(=O)CCC(=O)N(O)CCCCCNC(=O)CCC(=O)N(O)CCCCCNC(=O)CC12CC3CC(C)(CC(C)(C3)C1)C2`, for which the result was Active.

In the next data set the test system is SK-N-BE(2)-M17. Kind of data set: Cytotoxicity against human SK-N-BE(2)-M17 cells at 100 uM 24 hrs by LDH release assay. The data set is classed as cell-based. The conditions noted are these: sk-n-be(2)-m17, 24 h. In general terms: LDH in the medium is a marker of cell lysis.
On to `CC(=O)N(O)CCCCCNC(=O)CCC(=O)N(O)CCCCCNC(=O)CCC(=O)N(O)CCCCCNC(=O)C1CC2CCCC(C2)C1` (stereo not given), for which the Activity entry is recorded as “Non-Toxic”.

Consider `CC(=O)N(O)CCCCCNC(=O)CCC(=O)N(O)CCCCCNC(=O)CCC(=O)N(O)CCCCCNC(=O)CC12CC3CC(C)(CC(C)(C3)C1)C2`, for which the Activity entry is given as “Non-Toxic”.

A further data set relates to SK-N-BE(2)-M17. Kind of data set: Cytoprotection against PQ-induced cell death in human SK-N-BE(2)-M17 cells assessed as increase in cell viability at 100 uM pretreated for 2 hrs followed by 1 mM PQ addition measured after 24 hrs by MTT assay. It is filed as functional, cell-based.
Details: not given
As to `CC(=O)N(O)CCCCCNC(=O)CCC(=O)N(O)CCCCCNC(=O)CCC(=O)N(O)CCCCCNC(=O)C1CC2CCCC(C2)C1` (stereo not given), the outcome was inactive.

For `CC(=O)N(O)CCCCCNC(=O)CCC(=O)N(O)CCCCCNC(=O)CCC(=O)N(O)CCCCCNC(=O)CC12CC3CC(C)(CC(C)(C3)C1)C2`, the result was Active.

Another data set deals with SK-N-BE(2)-M17. Kind of data set: Cytoprotection against PQ-induced cell death in human SK-N-BE(2)-M17 cells assessed as increase in cell viability at 100 uM pretreated for 2 hrs followed by 1 mM PQ addition measured after 24 hrs by LDH assay. The data set is classed as functional, cell-based.
Details: not given
`CC(=O)N(O)CCCCCNC(=O)CCC(=O)N(O)CCCCCNC(=O)CCC(=O)N(O)CCCCCNC(=O)C1CC2CCCC(C2)C1` (stereo not given): the outcome was inactive.

Consider `CC(=O)N(O)CCCCCNC(=O)CCC(=O)N(O)CCCCCNC(=O)CCC(=O)N(O)CCCCCNC(=O)CC12CC3CC(C)(CC(C)(C3)C1)C2`, for which the outcome was Active.

The subject of a further data set is SK-N-BE(2)-M17. Kind of data set: Cytoprotection against PQ-induced cell death in human SK-N-BE(2)-M17 cells assessed as increase in cell viability at 100 uM treated post 200 uM Fecl3 and 1 mM PQ treatment measured after 24 hrs by MTT assay.
Details: not given
The data set is classed as functional, cell-based.
On to `CC(=O)N(O)CCCCCNC(=O)CCC(=O)N(O)CCCCCNC(=O)CCC(=O)N(O)CCCCCNC(=O)C1CC2CCCC(C2)C1` (stereo not given), for which the result was Active.

Take `CC(=O)N(O)CCCCCNC(=O)CCC(=O)N(O)CCCCCNC(=O)CCC(=O)N(O)CCCCCNC(=O)CC12CC3CC(C)(CC(C)(C3)C1)C2`: the outcome was Active.

Another data set has as its system Astrocyte. Kind of data set: Cytoprotection against H2O2-induced cell death in BSO pretreated C57BL6/J mouse brain primary astrocytes assessed as increase in cell viability at 10 uM pretreated for 2 hrs followed by H2O2 addition measured after 24 hrs by LDH release assay. The data set is classed as functional, cell-based.
Details: not given
Turning to `CC(=O)N(O)CCCCCNC(=O)CCC(=O)N(O)CCCCCNC(=O)CCC(=O)N(O)CCCCCNC(=O)C1CC2CCCC(C2)C1` (stereo not given), the result was Active.

`CC(=O)N(O)CCCCCNC(=O)CCC(=O)N(O)CCCCCNC(=O)CCC(=O)N(O)CCCCCNC(=O)CC12CC3CC(C)(CC(C)(C3)C1)C2`: the outcome was Active.

Test system in another data set: not listed separately
Kind of data set: Binding affinity to Fe3+ assessed as change in retention time for compound-Fe3+ complex by RP-HPLC analysis relative to free ligand.
Details: not given
Turning to `CC(=O)N(O)CCCCCNC(=O)CCC(=O)N(O)CCCCCNC(=O)CCC(=O)N(O)CCCCCNC(=O)C1CC2CCCC(C2)C1` (stereo not given), the Retention time is 0.65 min.

Consider `CC(=O)N(O)CCCCCNC(=O)CCC(=O)N(O)CCCCCNC(=O)CCC(=O)N(O)CCCCCNC(=O)CC12CC3CC(C)(CC(C)(C3)C1)C2`, for which the Retention time was 1.54 min.

Test system in the next data set: not listed separately
Kind of data set: Octanol-water partition coefficient, log P of the compound at 1 mg by RP-HPLC analysis. The data set is classed as physicochemical.
Details: not given
With `CC(=O)N(O)CCCCCNC(=O)CCC(=O)N(O)CCCCCNC(=O)CCC(=O)N(O)CCCCCNC(=O)C1CC2CCCC(C2)C1` (stereo not given), the logP turned out to be 1.87.

The molecule `CC(=O)N(O)CCCCCNC(=O)CCC(=O)N(O)CCCCCNC(=O)CCC(=O)N(O)CCCCCNC(=O)CC12CC3CC(C)(CC(C)(C3)C1)C2` gave a logP of 2.17.

In another data set the test system is SK-N-BE(2)-M17. Kind of data set: Cytotoxicity against human SK-N-BE(2)-M17 cells at 100 uM 24 hrs by MTT assay. Conditions: sk-n-be(2)-m17, 24 h. It is filed as cell-based.
In the case of `CC(=O)N(O)CCCCCNC(=O)CCC(=O)N(O)CCCCCNC(=O)CCC(=O)N(O)CCCCCNC(=O)C1CC2CCCC(C2)C1` (stereo not given), the Activity entry is “Non-Toxic”.

With `CC(=O)N(O)CCCCCNC(=O)CCC(=O)N(O)CCCCCNC(=O)CCC(=O)N(O)CCCCCNC(=O)CC12CC3CC(C)(CC(C)(C3)C1)C2`, the Activity result is “Non-Toxic”.

Another data set concerns SK-N-BE(2)-M17. Kind of data set: Cytoprotection against H2O2-induced cell death in human SK-N-BE(2)-M17 cells assessed as increase in cell viability at 100 uM treated 2 hrs post 0.8 mM H2O2 treatment measured after 24 hrs by MTT assay. The data set is classed as functional, cell-based.
Details: not given
With `CC(=O)N(O)CCCCCNC(=O)CCC(=O)N(O)CCCCCNC(=O)CCC(=O)N(O)CCCCCNC(=O)C1CC2CCCC(C2)C1` (stereo not given), the result was inactive.

A further data set deals with SK-N-BE(2)-M17. Kind of data set: Cytoprotection against PQ-induced cell death in human SK-N-BE(2)-M17 cells assessed as increase in cell viability at 100 uM treated post 200 uM Fecl3 and 1 mM PQ treatment measured after 24 hrs by LDH assay. The data set is classed as functional, cell-based.
Details: not given
For `CC(=O)N(O)CCCCCNC(=O)CCC(=O)N(O)CCCCCNC(=O)CCC(=O)N(O)CCCCCNC(=O)C1CC2CCCC(C2)C1` (stereo not given), the outcome was Active.

Turning to `CC(=O)N(O)CCCCCNC(=O)CCC(=O)N(O)CCCCCNC(=O)CCC(=O)N(O)CCCCCNC(=O)CC12CC3CC(C)(CC(C)(C3)C1)C2`, the result was Active.

Test system in the next data set: not listed separately
Kind of data set: Binding affinity to Fe3+ assessed as [M+H]+ adduct formation by LC-MS/MS analysis.
Details: not given
Consider `CC(=O)N(O)CCCCCNC(=O)CCC(=O)N(O)CCCCCNC(=O)CCC(=O)N(O)CCCCCNC(=O)C1CC2CCCC(C2)C1` (stereo not given), for which the result was Active.

Regarding `CC(=O)N(O)CCCCCNC(=O)CCC(=O)N(O)CCCCCNC(=O)CCC(=O)N(O)CCCCCNC(=O)CC12CC3CC(C)(CC(C)(C3)C1)C2`, the outcome was Active.

Another data set relates to SK-N-BE(2)-M17. Kind of data set: Cytoprotection against PQ-induced cell death in human SK-N-BE(2)-M17 cells assessed as increase in cell viability treated 2 hrs post 2 mM PQ treatment measured after 24 hrs by MTT assay. It is filed as functional, cell-based.
Details: not given
For `CC(=O)N(O)CCCCCNC(=O)CCC(=O)N(O)CCCCCNC(=O)CCC(=O)N(O)CCCCCNC(=O)CC12CC3CC(C)(CC(C)(C3)C1)C2`, the EC50 was 5.8 µM.

The test system of a further data set is SK-N-BE(2)-M17. Kind of data set: Cytoprotection against PQ-induced cell death in human SK-N-BE(2)-M17 cells assessed as increase in cell viability at 100 uM treated 2 hrs post 2 mM PQ treatment measured after 24 hrs by LDH assay. It is filed as functional, cell-based.
Details: not given
For `CC(=O)N(O)CCCCCNC(=O)CCC(=O)N(O)CCCCCNC(=O)CCC(=O)N(O)CCCCCNC(=O)C1CC2CCCC(C2)C1` (stereo not given), the outcome was inactive.

A further data set has as its system SK-N-BE(2)-M17. Kind of data set: Cytoprotection against H2O2-induced cell death in human SK-N-BE(2)-M17 cells assessed as increase in cell viability at 100 uM treated 2 hrs post 0.8 mM H2O2 treatment measured after 24 hrs by LDH assay. It is filed as functional, cell-based.
Details: not given
Turning to `CC(=O)N(O)CCCCCNC(=O)CCC(=O)N(O)CCCCCNC(=O)CCC(=O)N(O)CCCCCNC(=O)C1CC2CCCC(C2)C1` (stereo not given), the result was inactive.

In another data set the test system is SK-N-BE(2)-M17. Kind of data set: Cytoprotection against H2O2-induced cell death in human SK-N-BE(2)-M17 cells assessed as increase in cell viability at 100 uM pretreated for 2 hrs followed by 1 mM H2O2 addition measured after 24 hrs by MTT assay. It is filed as functional, cell-based.
Details: not given
Consider `CC(=O)N(O)CCCCCNC(=O)CCC(=O)N(O)CCCCCNC(=O)CCC(=O)N(O)CCCCCNC(=O)C1CC2CCCC(C2)C1` (stereo not given), for which the result was inactive.

Turning to `CC(=O)N(O)CCCCCNC(=O)CCC(=O)N(O)CCCCCNC(=O)CCC(=O)N(O)CCCCCNC(=O)CC12CC3CC(C)(CC(C)(C3)C1)C2`, the outcome was Active.

For the next data set, the system named is SK-N-BE(2)-M17. Kind of data set: Cytoprotection against PQ-induced cell death in human SK-N-BE(2)-M17 cells assessed as increase in cell viability at 100 uM treated 2 hrs post 2 mM PQ treatment measured after 24 hrs by MTT assay. The data set is classed as functional, cell-based.
Details: not given
For `CC(=O)N(O)CCCCCNC(=O)CCC(=O)N(O)CCCCCNC(=O)CCC(=O)N(O)CCCCCNC(=O)C1CC2CCCC(C2)C1` (stereo not given), the result was inactive.

Regarding `CC(=O)N(O)CCCCCNC(=O)CCC(=O)N(O)CCCCCNC(=O)CCC(=O)N(O)CCCCCNC(=O)CC12CC3CC(C)(CC(C)(C3)C1)C2`, the result was Active.

Test system in the next data set: not listed separately
Kind of data set: Binding affinity to Fe3+ assessed as [M+2H]+ adduct formation by LC-MS/MS analysis.
Details: not given
On to `CC(=O)N(O)CCCCCNC(=O)CCC(=O)N(O)CCCCCNC(=O)CCC(=O)N(O)CCCCCNC(=O)C1CC2CCCC(C2)C1` (stereo not given), for which the result was Active.

On to `CC(=O)N(O)CCCCCNC(=O)CCC(=O)N(O)CCCCCNC(=O)CCC(=O)N(O)CCCCCNC(=O)CC12CC3CC(C)(CC(C)(C3)C1)C2`, for which the result was Active.

Another data set relates to SK-N-BE(2)-M17. Kind of data set: Cytoprotection against H2O2-induced cell death in human SK-N-BE(2)-M17 cells assessed as increase in cell viability at 100 uM pretreated for 2 hrs followed by 1 mM H2O2 addition measured after 24 hrs by LDH assay. The data set is classed as functional, cell-based.
Details: not given
As for `CC(=O)N(O)CCCCCNC(=O)CCC(=O)N(O)CCCCCNC(=O)CCC(=O)N(O)CCCCCNC(=O)C1CC2CCCC(C2)C1` (stereo not given), the outcome was inactive.

On to `CC(=O)N(O)CCCCCNC(=O)CCC(=O)N(O)CCCCCNC(=O)CCC(=O)N(O)CCCCCNC(=O)CC12CC3CC(C)(CC(C)(C3)C1)C2`, for which the outcome was Active.

Test system in another data set: not listed separately
Kind of data set: Binding affinity to Fe3+ in ferric ammonium citrate loaded C57BL6/J mouse brain primary astrocytes assessed as iron depletion at 100 uM treated 2 hrs post 125 uM FAC loading measured after 2 hrs by ICP-MS analysis. The data set is classed as cell-based.
Details: not given
On to `CC(=O)N(O)CCCCCNC(=O)CCC(=O)N(O)CCCCCNC(=O)CCC(=O)N(O)CCCCCNC(=O)CC12CC3CC(C)(CC(C)(C3)C1)C2`, for which the result was Active.
